Results as given in patent publication US10179914B2, “CDC25A inhibitor for the treatment of drug resistant cancer or for the prevention of tumor relapse” (INSERM (INSTITUT NATIONAL DE LA SANTÉ ET DE LA RECHERCHE …, priority 2014, dated 2019).

Tests used:
[1] = Preliminary toxicity assays in NSG mice; type: in vivo
Text: In vivo experiments. Animals were used in accordance to a protocol reviewed and approved by the Institutional Animal Care and User Ethical Committee of the UMS006 and Region Midi-Pyrénées (Approval#13-U1037-JES08). NOD/LtSz-scid IL-2Rγchainnull (NSG) mice (Sanchez P V et al) were produced at the Genotoul Anexplo platform in Toulouse (France) using breeders obtained from The Charles River Laboratory. Mice were housed in sterile conditions using HEPA filtered micro-isolators and fed with irradiated food and acidified water. Transplanted mice were treated with antibiotics (enrofloxacin) for the duration of the experiment. […] Adult mice (6 or 7-week old) were treated with 20 mg/kg Busulfan (Busilvex, Pierre Fabre, France) by i.p. administration 24 hours before injection of leukemic cells. Cultured MOLM-14 cells were washed in PBS and cleared of aggregates and debris using a 0.2 mm cell filter, and suspended in PBS at a final concentration of 2 million cells per 200 μL of PBS per mouse for i.v. injection. IRC-083864 (5 mg/kg/week) was then administrated to leukemic mice by i.p. injection. Daily monitoring of mice for symptoms of disease (ruffled coat, hunched back, weakness and reduced motility) determined the time of animal euthanasia. Cell differentiation was monitored after two IRC-083864 injections: mice were humanely killed in accordance with IACUC protocols. […]

[2] = system: FLT3-ITD positive primary AML cells; assay: Clonogenic assay, FLT3-ITD positive primary AML cells; type: cell-based, human; conditions: 100 and 200 nM, day 7, semi-solid 5637 conditioned medium
Procedure: (c) Primary cells from patients were cultured in semi-solid medium to estimate their clonogenic potential as described in the Methods section, in the presence or the absence of IRC-083864 (100 and 200 nM). 6 FLT3-ITD positive (upper panel) and 4 FLT3-wild type (lower panel) AML primary samples were used for these experiments. Leukemic colonies were scored under an inverted microscope at day 7.
(§1) Patient samples. Patient AML samples were obtained after informed consent in accordance with the Declaration of Helsinki and stored at the HIMIP collection. According to the French law, HIMIP collection has been declared to the Ministry of Higher Education and Research (DC 2008-307 collection 1) and obtained a transfer agreement (AC 2008-129) after approbation by ethical committees (Comité de Protection des Personnes Sud-Ouest et Outremer II and APHP ethical committee). Clinical and biological annotations of the samples have been declared to the CNIL (Comité National Informatique et Libertés i.e. Data processing and Liberties National Committee). Frozen cells were thawed in IMDM medium with 20% FBS and immediately processed for treatment. All patients were diagnosed at the Department of Hematology of Toulouse University Hospital.
Clonogenic assay. […] Leukemic colonies were then scored under an inverted microscope.

[3] = system: FLT3-wild type primary AML samples; assay: Differentiation of FLT3 wild-type primary AML samples; type: cell-based, human; conditions: same conditions
Text: as §1
Co-cultures. […]
Flow cytometry. Apoptotic cells were detected with Annexin V-FITC detection kit from BD Pharmingen (San Diego, Calif., USA) according to the manufacturer instructions. […] Data were collected on a LSRII or a LSRFortessa cytometer (BD Biosciences), and analyzed with FlowJo software. […]

In the case of `Cc1nc2c(s1)C(=O)C=C(NCCCN(C)CCCNC1=CC(=O)c3nc(-c4cc(F)ccc4F)oc3C1=O)C2=O` [IRC-083864], the “toxicity in male versus female NSG mice” value [1] is reported as “higher toxicity”, the “clonogenic potential of FLT3-ITD positive primary cells” value [2] is reported as “significantly reduced” and the “differentiation of FLT3-wild type samples” value [3] is reported as “no evidence of differentiation”.
